Measurements from PMC6020689 (Angewandte Chemie (International ed. in English), 2018).

Target: EtCYP112 (Erwinia tracheiphila, UniProt A0A0M2KIP9)
Assay: GC-MS product analysis, reconstituted system
Assay type: biochemical
Conditions: spinach Fd, EtFdR

## C=C1C[C@]23C[C@H]1CC[C@H]2[C@]1(C)CCC[C@@](C)(C(=O)O)[C@H]1[C@@H]3C(=O)O [GA12]
NADPH in excess
  GC-MS product analysis, reconstituted system: reconstituted system with purified ferredoxin reductase from E. tracheiphila (EtFdR) and spinach ferredoxin (Fd), converting GA12

## C=C1C[C@]23C[C@H]1CC[C@H]2[C@]1(C=O)CCC[C@@](C)(C(=O)O)[C@H]1[C@@H]3C(=O)O [GA24]
NADPH
  GC-MS product analysis, reconstituted system: while GA15 and GA24 were readily converted to GA9, GA25 is not
